Measurements published in ChEMBL document CHEMBL4732045, “Amide Bond Bioisosteres: Strategies, Synthesis, and Successes” (J Med Chem, 2020).
Values after ≈ are worked out from the molar mass of the structure shown. Peptide text beside a SMILES is read from it. * marks the point of attachment. Hica(2S) = CC(C)C[C@H](O)C(=O)O; Boc = CC(C)(C)OC(=O)*

What was measured:
[1] = Antagonist activity at bombesin receptor in Sprague-Dawley rat pancreatic acini assessed as inhibition of bombesin-induced amylase release incubated for 30 mins; format: tissue-based, Pancreas
Integrin alpha-4/beta-1 = Integrin alpha-4/beta-1 (Homo sapiens, UniProt P05556+P13612); test: Displacement of 125I-VCAM-Ig from VLA4 in human Jurkat cells incubated for 30 mins by scintillation counting method; format: cell-based
[2] = Plasma clearance in rat; format: ADME
[3] = Oral bioavailability in Sprague-Dawley rat at 2 mg/kg; format: ADME, organism-based; details: in vivo
[4] = Inhibition of ACAT in cholesterol-fed New Zealand rabbit intestional microsomes using [1-14C]oleoyl-CoA as substrate preincubated for 5 mins followed by substrate addition and measured after 5 mins by liquid scintillation counting method; design: species or system Oryctolagus cuniculus, Intestine, Microsome
Rattus norvegicus = test: Hypocholesterolemic activity in cholestrol fed Sprague-Dawley rat assessed as decrease in total cholesterol at 0.05%, po administered for 1 week; format: functional; design: scale not given: the % may be the effect or the level left; details: time 1 weeks
[5] = target: Gastrin/cholecystokinin type B receptor (Homo sapiens) (UniProt P32239); test: Agonist activity at CCKBR in human NCI-H345 cells assessed as calcium release relative to control; format: functional, cell-based; details: filed as agonist
[6] = Inhibition of [125]BH-CCK8 binding to guinea pig cortex CCKBR by radioligand binding assay; format: tissue-based, Cavia porcellus
[7] = target: T1, Delta-type opioid receptor (Mus musculus, UniProt P32300); test: Inhibition of [3H]-Deltorphin 2 binding to mouse delta opioid receptor expressed in rat GH3 cell membranes by Cheng-Prusoff analysis; design: species or system Cell membrane
[8] = Half life in Sprague-Dawley rat plasma measured after 60 mins by HPLC method; format: ADME, cell-free
[9] = target: T1, Delta-type opioid receptor; test: Agonist activity at delta opioid receptor in mouse vas deferens assessed as inhibition of electric-field induced measured after 5 mins; format: tissue-based
[10] = target: T1, Delta-type opioid receptor; test: Inhibition of [3H]-Deltorphin 2 binding to mouse delta opioid receptor expressed in HEK293 cell membranes incubated for 60 mins by Cheng-Prusoff analysis; design: species or system Cell membrane
Cannabinoid receptor 1 = Cannabinoid receptor 1 (Homo sapiens, UniProt P21554); test: Displacement of [3H]-CP55940 from human recombinant cannabinoid CB1 receptor expressed in HEK cells by Cheng-Prusoff analysis; format: cell-based
[11] = target: T2, Transient receptor potential cation channel subfamily V member 1 (Homo sapiens, UniProt Q8NER1)
[12] = target: T2, Transient receptor potential cation channel subfamily V member 1; test: Antagonist activity at human recombinant TRPV1 expressed in HEK293 cells assessed as effect on intracellular calcium level by FLOU-4 dye based fluorescence spectrometry; format: cell-based
[13] = target: Gastrin/cholecystokinin type B receptor (Homo sapiens, UniProt P32239); test: Agonist activity at CCKBR in human NCI-H345 cells assessed as calcium release; format: functional, cell-based
[14] = target: Cholecystokinin receptor type A (Cavia porcellus, UniProt Q63931); test: Inhibition of [125]BH-CCK8 binding to guinea pig pancreas CCKAR by radioligand binding assay; format: tissue-based
[15] = Half-life in human plasma at 50 uM measured by LC-MS/MS analysis; format: ADME, cell-free
[16] = Half-life in Sprague-Dawley rat plasma at 50 uM measured by LC-MS/MS analysis; format: ADME, cell-free
[17] = target: Delta-type opioid receptor (Homo sapiens, UniProt P41143)
[18] = target: Kappa-type opioid receptor (Homo sapiens, UniProt P41145)
Mu-type opioid receptor = Mu-type opioid receptor (Homo sapiens, UniProt P35372)
MDA-MB-231 [19] = test: Antitumor activity against human MDA-MB-231 cells xenografted in nude mouse assessed as reduction in tumor volume at 70 mg/kg, ip administered for 15 days (reference value: 550 +/- 98.6 mm3); format: functional; details: time 15 day
MCF-10A = test: Antiproliferative activity against human MCF-10A cells incubated for 24 hrs by MTT assay; format: functional, cell-based
MDA-MB-231 [20] = test: cells; details: Homo sapiens, MDA-MB-231, 24 h
[21] = target: 72 kDa type IV collagenase (Homo sapiens, UniProt P08253); test: Inhibition of TNF-induced MMP2 isolated from human HT-1080 cell medium by fluorometric assay; format: tissue-based
[22] = Half life in rat at 30 mg/kg, po; format: ADME, organism-based; details: in vivo
Matrilysin = Matrilysin (Homo sapiens, UniProt P09237); test: Inhibition of human MMP7 by fluorometric assay
Interstitial collagenase = Interstitial collagenase (Homo sapiens, UniProt P03956); test: Inhibition of PMA-induced human skin fibroblast derived MMP1 by fluorometric assay; format: tissue-based
Stromelysin-1 = Stromelysin-1 (Homo sapiens, UniProt P08254); test: Inhibition of human MMP3 by fluorometric assay
[23] = Oral bioavailability in rat at 30 mg/kg; format: ADME, organism-based; details: in vivo
Human betaherpesvirus 5 = test: Antiviral activity against HCMV infected in human Hs68 cells by plaque reduction assay; format: functional, cell-based; details: Human betaherpesvirus 5, Hs68
clinical = details: human
MDA-MB-231 [24] = test: Antitumor activity against human MDA-MB-231 cells xenografted in nude mouse assessed as reduction in tumor volume at 90 mg/kg, ip administered for 15 days (reference value: 550 +/- 98.6 mm3); format: functional; details: time 15 day
[25] = target: Protein-S-isoprenylcysteine O-methyltransferase (Homo sapiens, UniProt O60725); test: Inhibition of human isoprenylcysteine carboxyl methyltransferase expressed in Saccharomyces cerevisiae membranes using AFC as substrate in presence of 14C-SAM incubated for 30 min by scintillation counting method; format: cell membranes, Cell membrane

T1 sequence (P32300 whole entry): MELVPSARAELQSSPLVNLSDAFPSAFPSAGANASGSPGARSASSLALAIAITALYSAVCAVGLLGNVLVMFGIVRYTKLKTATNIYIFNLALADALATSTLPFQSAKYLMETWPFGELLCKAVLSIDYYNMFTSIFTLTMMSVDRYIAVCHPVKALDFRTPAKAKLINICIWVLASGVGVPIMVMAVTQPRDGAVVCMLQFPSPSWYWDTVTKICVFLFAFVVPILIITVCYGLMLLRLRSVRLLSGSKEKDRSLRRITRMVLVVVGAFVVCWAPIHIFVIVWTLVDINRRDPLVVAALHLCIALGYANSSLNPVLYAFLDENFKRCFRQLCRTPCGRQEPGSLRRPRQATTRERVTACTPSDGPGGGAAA
Sequence of Gastrin/cholecystokinin type B receptor (Homo sapiens) (P32239 whole entry): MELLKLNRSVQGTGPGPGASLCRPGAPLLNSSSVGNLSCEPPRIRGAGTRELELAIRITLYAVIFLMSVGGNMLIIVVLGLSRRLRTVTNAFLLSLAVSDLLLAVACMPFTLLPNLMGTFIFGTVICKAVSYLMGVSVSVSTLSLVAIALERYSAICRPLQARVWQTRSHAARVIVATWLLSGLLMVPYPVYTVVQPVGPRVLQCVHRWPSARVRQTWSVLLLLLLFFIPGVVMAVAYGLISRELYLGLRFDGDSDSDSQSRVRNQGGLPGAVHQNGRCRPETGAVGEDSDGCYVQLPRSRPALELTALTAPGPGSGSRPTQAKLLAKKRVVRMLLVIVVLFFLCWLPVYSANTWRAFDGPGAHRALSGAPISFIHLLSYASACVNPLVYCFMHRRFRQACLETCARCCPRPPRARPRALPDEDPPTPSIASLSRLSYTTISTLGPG
Sequence of Delta-type opioid receptor (Homo sapiens, UniProt P41143) (P41143 whole entry): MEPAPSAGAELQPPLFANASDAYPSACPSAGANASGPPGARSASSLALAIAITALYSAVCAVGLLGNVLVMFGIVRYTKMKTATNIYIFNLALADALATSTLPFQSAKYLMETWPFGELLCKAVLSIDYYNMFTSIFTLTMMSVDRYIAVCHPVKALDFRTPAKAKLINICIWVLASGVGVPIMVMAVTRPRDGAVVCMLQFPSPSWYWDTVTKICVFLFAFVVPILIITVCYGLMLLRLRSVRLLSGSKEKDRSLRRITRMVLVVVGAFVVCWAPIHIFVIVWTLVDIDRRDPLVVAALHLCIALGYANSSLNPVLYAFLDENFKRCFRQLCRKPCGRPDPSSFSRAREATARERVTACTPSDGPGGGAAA
T2 sequence (Q8NER1 whole entry): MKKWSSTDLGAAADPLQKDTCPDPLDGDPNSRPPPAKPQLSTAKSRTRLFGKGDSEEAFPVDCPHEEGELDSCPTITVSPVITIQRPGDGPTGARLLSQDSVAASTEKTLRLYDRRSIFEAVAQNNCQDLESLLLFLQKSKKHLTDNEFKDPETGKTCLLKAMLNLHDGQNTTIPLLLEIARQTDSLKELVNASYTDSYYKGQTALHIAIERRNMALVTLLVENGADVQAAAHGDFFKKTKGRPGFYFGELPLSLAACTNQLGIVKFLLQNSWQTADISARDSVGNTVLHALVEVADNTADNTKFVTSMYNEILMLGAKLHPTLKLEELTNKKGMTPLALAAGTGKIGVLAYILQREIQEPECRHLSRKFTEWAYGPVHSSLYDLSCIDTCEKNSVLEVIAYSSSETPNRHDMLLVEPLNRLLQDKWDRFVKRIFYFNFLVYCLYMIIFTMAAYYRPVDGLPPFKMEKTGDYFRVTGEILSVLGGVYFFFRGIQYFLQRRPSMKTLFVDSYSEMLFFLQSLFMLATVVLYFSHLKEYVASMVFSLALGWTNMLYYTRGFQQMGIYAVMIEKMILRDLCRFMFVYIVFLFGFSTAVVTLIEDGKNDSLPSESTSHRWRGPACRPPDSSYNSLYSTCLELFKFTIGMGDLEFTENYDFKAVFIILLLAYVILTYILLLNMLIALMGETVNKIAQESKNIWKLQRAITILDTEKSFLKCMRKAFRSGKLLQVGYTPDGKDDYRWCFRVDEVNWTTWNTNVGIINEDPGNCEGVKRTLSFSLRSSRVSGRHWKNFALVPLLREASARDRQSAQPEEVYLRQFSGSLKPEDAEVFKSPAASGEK
Sequence of Mu-type opioid receptor (P35372 whole entry): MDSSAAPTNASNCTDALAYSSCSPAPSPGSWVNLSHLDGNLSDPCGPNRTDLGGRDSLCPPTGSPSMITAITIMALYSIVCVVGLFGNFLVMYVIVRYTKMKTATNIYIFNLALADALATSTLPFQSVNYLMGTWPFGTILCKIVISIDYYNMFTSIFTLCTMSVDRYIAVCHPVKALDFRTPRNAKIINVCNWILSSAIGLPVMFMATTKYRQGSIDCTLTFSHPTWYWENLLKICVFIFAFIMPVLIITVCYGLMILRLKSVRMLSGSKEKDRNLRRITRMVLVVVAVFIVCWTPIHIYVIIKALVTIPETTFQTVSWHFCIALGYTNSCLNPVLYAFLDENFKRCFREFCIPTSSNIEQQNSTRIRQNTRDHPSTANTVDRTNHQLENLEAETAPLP
Sequence of Kappa-type opioid receptor (P41145 whole entry): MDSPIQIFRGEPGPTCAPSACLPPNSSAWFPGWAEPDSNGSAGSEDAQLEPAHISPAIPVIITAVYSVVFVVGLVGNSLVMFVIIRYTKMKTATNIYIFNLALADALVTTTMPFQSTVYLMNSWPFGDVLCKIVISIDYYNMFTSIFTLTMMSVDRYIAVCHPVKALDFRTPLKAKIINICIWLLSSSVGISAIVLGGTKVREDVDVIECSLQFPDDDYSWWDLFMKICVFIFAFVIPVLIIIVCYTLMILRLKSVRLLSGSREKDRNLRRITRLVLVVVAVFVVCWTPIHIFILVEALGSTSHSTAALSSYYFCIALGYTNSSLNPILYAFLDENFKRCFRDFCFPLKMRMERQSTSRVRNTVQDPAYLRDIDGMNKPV
Sequence of Cholecystokinin receptor type A (Q63931 whole entry): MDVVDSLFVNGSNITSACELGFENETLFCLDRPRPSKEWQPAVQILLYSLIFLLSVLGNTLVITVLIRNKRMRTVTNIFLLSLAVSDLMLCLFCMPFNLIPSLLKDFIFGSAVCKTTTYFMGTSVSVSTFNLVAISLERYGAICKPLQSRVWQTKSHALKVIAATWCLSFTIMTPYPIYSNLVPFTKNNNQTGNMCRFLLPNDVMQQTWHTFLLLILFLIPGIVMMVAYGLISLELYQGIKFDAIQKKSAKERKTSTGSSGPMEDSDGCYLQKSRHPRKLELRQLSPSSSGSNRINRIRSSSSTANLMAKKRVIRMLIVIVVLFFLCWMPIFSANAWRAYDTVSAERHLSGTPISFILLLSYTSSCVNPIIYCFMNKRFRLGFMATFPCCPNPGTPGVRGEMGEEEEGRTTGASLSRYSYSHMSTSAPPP
Sequence of Interstitial collagenase (P03956 whole entry): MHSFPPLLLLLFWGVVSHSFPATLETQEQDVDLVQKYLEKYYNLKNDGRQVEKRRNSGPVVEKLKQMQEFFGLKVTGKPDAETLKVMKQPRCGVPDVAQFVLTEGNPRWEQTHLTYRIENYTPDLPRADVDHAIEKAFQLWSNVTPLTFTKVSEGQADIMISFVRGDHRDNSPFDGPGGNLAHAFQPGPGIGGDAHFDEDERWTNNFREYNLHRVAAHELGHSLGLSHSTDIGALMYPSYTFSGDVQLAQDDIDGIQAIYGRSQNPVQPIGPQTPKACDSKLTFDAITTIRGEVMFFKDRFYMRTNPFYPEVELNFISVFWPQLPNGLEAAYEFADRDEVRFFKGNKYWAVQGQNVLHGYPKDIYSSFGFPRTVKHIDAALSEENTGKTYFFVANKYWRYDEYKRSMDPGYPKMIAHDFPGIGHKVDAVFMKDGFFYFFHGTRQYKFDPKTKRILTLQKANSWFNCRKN
Sequence of Stromelysin-1 (P08254 whole entry): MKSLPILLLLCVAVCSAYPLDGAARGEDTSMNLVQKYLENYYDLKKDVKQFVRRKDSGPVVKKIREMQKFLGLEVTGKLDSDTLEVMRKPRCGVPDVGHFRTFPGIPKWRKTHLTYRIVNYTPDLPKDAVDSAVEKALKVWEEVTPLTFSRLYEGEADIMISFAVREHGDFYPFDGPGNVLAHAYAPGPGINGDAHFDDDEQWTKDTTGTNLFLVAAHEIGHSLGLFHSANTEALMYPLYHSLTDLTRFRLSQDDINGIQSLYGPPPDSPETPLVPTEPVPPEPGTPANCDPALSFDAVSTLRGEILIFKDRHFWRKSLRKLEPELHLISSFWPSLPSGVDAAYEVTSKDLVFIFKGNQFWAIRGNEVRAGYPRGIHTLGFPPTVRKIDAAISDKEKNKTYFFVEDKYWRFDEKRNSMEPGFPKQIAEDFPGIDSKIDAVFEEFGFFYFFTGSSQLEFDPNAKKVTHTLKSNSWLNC
Sequence of Gastrin/cholecystokinin type B receptor (P32239 whole entry): as the sequence (P32239 whole entry) above
Sequence of Cannabinoid receptor 1 (P21554 whole entry): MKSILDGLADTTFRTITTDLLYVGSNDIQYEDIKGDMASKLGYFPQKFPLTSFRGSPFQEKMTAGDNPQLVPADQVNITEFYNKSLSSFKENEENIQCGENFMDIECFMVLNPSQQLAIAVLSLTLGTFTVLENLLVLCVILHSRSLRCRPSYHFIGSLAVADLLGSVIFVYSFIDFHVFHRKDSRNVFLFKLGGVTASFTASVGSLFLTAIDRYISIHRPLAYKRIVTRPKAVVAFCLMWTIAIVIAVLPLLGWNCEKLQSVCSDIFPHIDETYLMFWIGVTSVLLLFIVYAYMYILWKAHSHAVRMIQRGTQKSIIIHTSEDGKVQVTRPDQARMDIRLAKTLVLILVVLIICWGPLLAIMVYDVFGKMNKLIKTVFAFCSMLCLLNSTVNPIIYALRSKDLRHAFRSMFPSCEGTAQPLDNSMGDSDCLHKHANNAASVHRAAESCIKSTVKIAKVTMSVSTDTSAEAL
Sequence of Matrilysin (P09237 whole entry): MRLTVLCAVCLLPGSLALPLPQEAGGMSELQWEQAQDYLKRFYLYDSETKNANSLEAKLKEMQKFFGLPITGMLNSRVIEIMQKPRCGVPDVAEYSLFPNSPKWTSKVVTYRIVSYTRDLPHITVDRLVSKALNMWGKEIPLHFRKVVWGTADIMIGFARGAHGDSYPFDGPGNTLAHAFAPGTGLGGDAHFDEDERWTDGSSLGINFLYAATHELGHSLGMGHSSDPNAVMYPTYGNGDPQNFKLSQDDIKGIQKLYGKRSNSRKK

## CC(C)C[C@H](N)CNC(=O)[C@H](CC(C)C)NC(=O)[C@H](Cc1cnc[nH]1)NC(=O)CNC(=O)[C@@H](NC(=O)[C@H](C)NC(=O)[C@H](Cc1c[nH]c2ccccc12)NC(=O)[C@H](CCC(N)=O)NC(=O)[C@H](N)Cc1ccccc1)C(C)C
[1]
  IC50: 68.7 nM

## CC[C@@]1(C(=O)N[C@@H](Cc2ccc(-c3c(OC)cccc3OC)cc2)C(=O)O)CCN1S(=O)(=O)c1ccccc1
Integrin alpha-4/beta-1
  IC50: 0.07 nM
[2]
  clearance: 110 mL/min/kg
[3]
  bioavailability: < 10%

## CCCCCCCCCCCCCCCCCNC(=O)Nc1c(C)cccc1C
[4]
  IC50: 160 nM
Rattus norvegicus
  Activity: 55%

## CSCC[C@H](NC(=O)[C@H](Cc1c[nH]c2ccccc12)NC(=O)OC(C)(C)C)C(=O)N[C@@H](CC(=O)O)C(=O)N[C@@H](Cc1ccccc1)C(N)=O
[5]
  Emax: 99%
[6]
  IC50: 25 nM

## CC(C)C[C@H](OC(=O)[C@H](Cc1ccccc1)NC(=O)CNC(=O)CNC(=O)[C@@H](N)Cc1ccc(O)cc1)C(=O)O (H-YGGF-{Hica(2S)})
[7]
  Ki: 11.9 nM
[8]
  half-life: 0.055 h
[9]
  EC50: 140 nM

## CC(C)C[C@H](NC(=O)[C@@H](/C=C(\F)CNC(=O)CNC(=O)[C@@H](N)Cc1ccc(O)cc1)Cc1ccccc1)C(=O)O
[10]
  Ki: 43 nM

## CCCCCCCc1cn(Cc2cc(OC)c(O)cc2I)nn1
Cannabinoid receptor 1
  Ki: 440 nM
[11]
  EC50: > 10000 nM
[12]
  Ki: 0.69 nM

## CC(C)C[C@H](NC(=O)OC(C)(C)C)C(=O)NCC(=O)N[C@@H](Cc1c[nH]c2ccccc12)C(=O)N[C@@H](CC(C)C)C(=O)N[C@@H](CC(=O)O)C(=O)N[C@@H](Cc1ccccc1)C(N)=O (Boc-LGWLDF-NH2)
[5]
  Emax: 99%
[13]
  EC50: 40 nM
[14]
  IC50: 1600 nM
[6]
  IC50: 54 nM

## CC(C)C[C@H](NC(=O)[C@H](Cc1ccccc1)NC(=O)CNC(=O)C/C=C(\F)[C@@H](N)Cc1ccc(O)cc1)C(=O)O
[15]
  half-life at 50 µM: 4 h
[16]
  half-life at 50 µM: 4 h

## CC(C)C[C@H](NC(=O)[C@H](Cc1ccccc1)NC(=O)CNC(=O)CN[C@H]([C@@H](N)Cc1ccc(O)cc1)C(F)(F)F)C(=O)O
[17]
  EC50: > 10000 nM
[18]
  EC50: > 10000 nM
Mu-type opioid receptor
  EC50: > 10000 nM

## CC(C)C[C@H](NC(=O)[C@H](Cc1ccccc1)NC(=O)CNC(=O)CN[C@@H]([C@@H](N)Cc1ccc(O)cc1)C(F)(F)F)C(=O)O
[17]
  EC50: > 10000 nM
[18]
  EC50: > 10000 nM
Mu-type opioid receptor
  EC50: > 10000 nM

## CCCCS(=O)(=O)NCc1ccc2c(c1)OCO2
MDA-MB-231 [19]
  Activity: 133.4 mm3
MCF-10A
  IC50: 198000 nM
MDA-MB-231 [20]
  IC50: 87000 nM

## CC(C)C[C@H](N)/C=C/NC(=O)[C@H](CC(C)C)NC(=O)[C@H](Cc1cnc[nH]1)NC(=O)CNC(=O)[C@@H](NC(=O)[C@H](C)NC(=O)[C@H](Cc1c[nH]c2ccccc12)NC(=O)[C@H](CCC(N)=O)NC(=O)[C@H](N)Cc1ccccc1)C(C)C
[1]
  IC50: 6.7 nM

## C=CC[C@H](C(=O)NO)[C@@H](CC(C)C)C(=O)N[C@@H](Cc1ccc2c(c1)CCC2)C(=O)NC
[21]
  IC50: 1.8 nM
[22]
  half-life: 0.35 h
Matrilysin
  IC50: 11 nM
Interstitial collagenase
  IC50: 2.2 nM
Stromelysin-1
  IC50: 12 nM
[23]
  bioavailability: 0%

## CC(C)Oc1ccccc1CNC(=O)Nc1ccc2cnccc2n1
Human betaherpesvirus 5
  IC50: 0.03 µg/mL (≈ 0.0892 µM)

## Cc1nnc2n1-c1ccc(Cl)cc1C(c1ccccc1)=NC2 [ALPRAZOLAM]
clinical
  half-life: 6.3 h

## COc1cc(CNC(=O)CCCC/C=C/C(C)C)ccc1O [CAPSAICIN]
MDA-MB-231 [24]
  Activity: 281.3 mm3
MDA-MB-231 [20]
  IC50: 120000 nM

## CC(C)=CCC/C(C)=C/CC/C(C)=C/CSC[C@H](NC(=O)c1ccccc1Oc1ccccc1)C(=O)O
[25]
  IC50: 4300 nM

## CCCCCCCCCCCCCCCCC(=O)Nc1c(C)cccc1C
[4]
  IC50: 43 nM
Rattus norvegicus
  Activity: 38%

## CC(C)C[C@@H](C(=O)O)N(C)C(=O)[C@H](Cc1ccccc1)NC(=O)CNC(=O)CNC(=O)[C@@H](N)Cc1ccc(O)cc1
[7]
  Ki: 12.6 nM
[8]
  half-life: 0.178 h
[9]
  EC50: 35 nM
